Data published in patent publication US20260199305A1, “LONG-ACTING ORAL PHARMACEUTICAL COMPRISING HYPOXIA-INDUCIBLE FACTOR PROLYL HYDROLASE INHIBITOR AND USE THEREOF” (Kind Pharmaceutical, priority 2023, published 2026).

What was measured:
[1] = system: patients with chronic kidney disease anemia; experiment: Phase 2 clinical trial in patients with chronic kidney disease anemia (hemoglobin, adverse events); format: in vivo, human; conditions: for mean rate of hemoglobin increase: end of dose-fixing period (5 weeks); for mean hemoglobin level: Weeks 6-14 (entire titration period); for cumulative percentage of patients achieving target hemoglobin range 10.0-11.0 g/dL and increase of ≥1.0 g/dL from baseline: entire 13-week treatment period; for TEAE, % of patients / TEAE, NE (total number of adverse events) / TEAE, n (number of patients experiencing adverse events) / Treatment-related TEAE, % of patients / Treatment-related TEAE, NE (total number of adverse events) / Treatment-related TEAE, n (number of patients experiencing adverse events): titration period
Protocol: A Phase 2, randomized, double-blind, placebo-controlled clinical study of Comp-1 in patients with chronic kidney disease anemia included a total treatment period of 13 weeks, divided into an initial 5-week dose-fixing period and a subsequent 8-week dose adjustment period (also referred to as the titration period). A total of 113 patients with renal anemia were initially randomized into the dose-fixing period. During the dose-fixing period, patients with renal anemia received Comp-1 8 mg, 12 mg, or 16 mg three times weekly (TIW), or a matching placebo. At the Week 6 study visit, a total of 44 eligible patients underwent a second randomization into the dose adjustment period (titration period). […] The starting dose in this phase was the same as the dose during the dose-fixing period and could be adjusted based on weekly hemoglobin values to maintain hemoglobin within the target range of 10.0-11.0 g/dL, inclusive. To maintain blinding, patients in the placebo group underwent pseudo-randomization and continued to receive matching placebo. During the study, patients were visited weekly to measure the primary efficacy indicator, i.e. hemoglobin level, and safety comparisons were made for patients entering the titration period according to dosing frequency (three times weekly (TIW) dosing vs. once weekly (QW) dosing).
The primary efficacy objective of the study was to compare the mean rate of hemoglobin increase (g/dL/week) at the end of the dose-fixing period (i.e., after 5 weeks of dosing) between the three Comp-1 dose groups and the placebo group. […] In the analysis of hemoglobin during the adjustment period (titration period), at Week 14 (i.e., at the end of the titration period or after 13 weeks of dosing), the mean levels of hemoglobin in the pooled Comp-1 TIW group and QW group were 10.74 g/dL and 10.09 g/dL, respectively, both maintained within the study target range of 10.0-11.0 g/dL inclusive, while the mean level of hemoglobin in the placebo group was 9.57 g/dL. During the later part of the adjustment period (titration period), i.e., Weeks 10-14, the mean levels of hemoglobin were >10.0 g/dL in all dose frequency groups including the placebo group: 10.73 g/dL and 10.77 g/dL in the pooled Comp-1 TIW and QW groups, respectively, and 10.26 g/dL in the placebo group. The change in hemoglobin level from baseline was 1.60 g/dL and 1.63 g/dL in the pooled Comp-1 TIW and QW groups, respectively, and 0.48 g/dL in the placebo group. […] In the analysis of hemoglobin throughout the entire adjustment period (titration period), i.e., Weeks 6-14, the mean hemoglobin levels in the pooled Comp-1 TIW and QW groups were 10.84 g/dL and 10.91 g/dL, respectively, compared to 10.23 g/dL in the placebo group. […] Throughout the entire 13-week treatment period, the cumulative percentage of patients achieving the target hemoglobin range of 10.0-11.0 g/dL inclusive and an increase of ≥1.0 g/dL from baseline was similar between the pooled Comp-1 TIW and QW groups: 100% and 90%, respectively, compared to 40% in the placebo group. Table 3 below provides a safety comparison for patients entering the titration period according to dosing frequency.
TEAE: treatment emergent adverse event; Treatment-related TEAE: treatment emergent adverse event considered related to treatment; N: number of patients; NE: total number of adverse events occurring; n: number of patients experiencing adverse events.

[2] = system: Normal Mice; experiment: Hemoglobin increase in normal mice, oral QD, TIW, QW; format: in vivo, C57BL/6J mice
Text: This experiment evaluated the effects of different dosing frequencies of the test compound Comp-1 at the same weekly dose on hemoglobin and various routine hematological parameters in male C57BL/6J mice.
After acclimatization feeding, on Day 0, submandibular vein blood was collected from 92 male mice aged 6-8 weeks for routine hematological analysis. Based on the Day 0 Hb (hemoglobin) results, 80 mice were selected for use in this experiment and divided into groups as follows: Vehicle (QD, 5 mice), Comp-1 (4.5 mg/kg, QD, 5 mice), Comp-1 (10.5 mg/kg, TIW, 5 mice), Comp-1 (31.5 mg/kg, QW, 5 mice), Comp-1 (9 mg/kg, QD, 15 mice), Comp-1 (21 mg/kg, TIW, 15 mice), Comp-1 (63 mg/kg, QW, 15 mice), Comp-1 (15 mg/kg, QD, 5 mice), Comp-1 (35 mg/kg, TIW, 5 mice), and Comp-1 (105 mg/kg, QW, 5 mice). On Day 14 and Day 28, submandibular vein blood was collected for routine hematological analysis. Quantitative data results were analyzed statistically using one-way analysis of variance (ANOVA) between groups, followed by Dunnett's multiple comparison method. Two-tailed analysis was used for statistics, and the statistical significance level was set at P<0.05.

[3] = 4.5 mg/kg, QD, total weekly dose 31.5 mg/kg
[4] = 9.0 mg/kg, QD, total weekly dose 63.0 mg/kg
[5] = 10.5 mg/kg, TIW, total weekly dose 31.5 mg/kg
[6] = 15.0 mg/kg, QD, total weekly dose 105.0 mg/kg
[7] = 21.0 mg/kg, TIW, total weekly dose 63.0 mg/kg
[8] = 31.5 mg/kg, QW, total weekly dose 31.5 mg/kg
[9] = 35.0 mg/kg, TIW, total weekly dose 105.0 mg/kg
[10] = 63.0 mg/kg, QW, total weekly dose 63.0 mg/kg
[11] = 105.0 mg/kg, QW, total weekly dose 105.0 mg/kg

O=C(O)CNC(=O)C1=C(O)C2(CCCC2)n2c(ccc2-c2ccccc2)C1=O [Comp-1, (6′-hydroxy-8′-oxo-3′-phenyl-8′H-spiro[cyclopentane-1,5′-indolizine]-7′-carbonyl)glycine]
mean rate of hemoglobin increase ([1]; 8 mg TIW): 0.2839 g/dL/week
mean rate of hemoglobin increase ([1]; 12 mg TIW): 0.3893 g/dL/week
mean rate of hemoglobin increase ([1]; 16 mg TIW): 0.4817 g/dL/week
mean level of hemoglobin ([1]; Week 14, pooled QW group): 10.09 g/dL
mean level of hemoglobin ([1]; Week 14, pooled TIW group): 10.74 g/dL
mean hemoglobin level ([1]; pooled QW group): 10.91 g/dL
mean hemoglobin level ([1]; pooled TIW group): 10.84 g/dL
change in hemoglobin from baseline ([1]; Weeks 6-14, pooled QW group): 1.78 g/dL
change in hemoglobin from baseline ([1]; Weeks 6-14, pooled TIW group): 1.71 g/dL
change in hemoglobin level from baseline ([1]; Weeks 10-14, pooled QW group): 1.63 g/dL
mean level of hemoglobin ([1]; Weeks 10-14, pooled QW group): 10.77 g/dL
change in hemoglobin level from baseline ([1]; Weeks 10-14, pooled TIW group): 1.60 g/dL
mean level of hemoglobin ([1]; Weeks 10-14, pooled TIW group): 10.73 g/dL
cumulative percentage of patients achieving target hemoglobin range 10.0-11.0 g/dL and increase of ≥1.0 g/dL from baseline ([1]; pooled QW group): 90%
cumulative percentage of patients achieving target hemoglobin range 10.0-11.0 g/dL and increase of ≥1.0 g/dL from baseline ([1]; pooled TIW group): 100%
TEAE, % of patients ([1]; Pooled QW, N = 20): 70.0%
TEAE, NE (total number of adverse events) ([1]; Pooled QW, N = 20): 18
TEAE, n (number of patients experiencing adverse events) ([1]; Pooled QW, N = 20): 14
Treatment-related TEAE, % of patients ([1]; Pooled QW, N = 20): 5.0%
Treatment-related TEAE, NE (total number of adverse events) ([1]; Pooled QW, N = 20): 1
Treatment-related TEAE, n (number of patients experiencing adverse events) ([1]; Pooled QW, N = 20): 1
TEAE, % of patients ([1]; Pooled TIW, N = 19): 73.7%
TEAE, NE (total number of adverse events) ([1]; Pooled TIW, N = 19): 39
TEAE, n (number of patients experiencing adverse events) ([1]; Pooled TIW, N = 19): 14
Treatment-related TEAE, % of patients ([1]; Pooled TIW, N = 19): 10.5%
Treatment-related TEAE, NE (total number of adverse events) ([1]; Pooled TIW, N = 19): 2
Treatment-related TEAE, n (number of patients experiencing adverse events) ([1]; Pooled TIW, N = 19): 2
Hb Day 0 [2, 3]: 15.2 ± 0.61 g/dL
Hb Day 14 [2, 3]: 18.2 ± 0.52 g/dL
Hb Day 28 [2, 3]: 19.7 ± 0.53 g/dL
Hb Day 0 [2, 4]: 15.3 ± 0.51 g/dL
Hb Day 14 [2, 4]: 20.6 ± 0.44 g/dL
Hb Day 28 [2, 4]: 23.1 ± 0.80 g/dL
Hb Day 0 [2, 5]: 15.3 ± 0.66 g/dL
Hb Day 14 [2, 5]: 17.9 ± 0.54 g/dL
Hb Day 28 [2, 5]: 19.2 ± 0.22 g/dL
Hb Day 0 [2, 6]: 15.3 ± 0.48 g/dL
Hb Day 14 [2, 6]: 20.1 ± 0.54 g/dL
Hb Day 28 [2, 6]: 22.8 ± 0.29 g/dL
Hb Day 0 [2, 7]: 15.3 ± 0.49 g/dL
Hb Day 14 [2, 7]: 19.7 ± 0.77 g/dL
Hb Day 28 [2, 7]: 22.0 ± 0.11 g/dL
Hb Day 0 [2, 8]: 15.3 ± 0.48 g/dL
Hb Day 14 [2, 8]: 16.7 ± 0.40 g/dL
Hb Day 28 [2, 8]: 17.2 ± 0.52 g/dL
Hb Day 0 [2, 9]: 15.3 ± 0.44 g/dL
Hb Day 14 [2, 9]: 18.9 ± 0.11 g/dL
Hb Day 28 [2, 9]: 22.4 ± 0.57 g/dL
Hb Day 0 [2, 10]: 15.3 ± 0.51 g/dL
Hb Day 14 [2, 10]: 17.4 ± 0.62 g/dL
Hb Day 28 [2, 10]: 18.5 ± 0.74 g/dL
Hb Day 0 [2, 11]: 15.3 ± 0.50 g/dL
Hb Day 14 [2, 11]: 19.0 ± 0.40 g/dL
Hb Day 28 [2, 11]: 20.0 ± 0.48 g/dL
mean hemoglobin values vs Vehicle control group ([2]; Day 14 and Day 28, all groups receiving Comp-1, P<0.001): significantly different
